These are literature values, as cited in US12116371B2, “Substituted pyridines as irreversible inhibitors of menin-MLL interaction” (BIOMEA FUSION, INC., priority 2018, dated 2024).

In the series the target is T1, menin-MLL protein-protein interaction (Homo sapiens, UniProt O00255).
T1 sequence (O00255 1-610): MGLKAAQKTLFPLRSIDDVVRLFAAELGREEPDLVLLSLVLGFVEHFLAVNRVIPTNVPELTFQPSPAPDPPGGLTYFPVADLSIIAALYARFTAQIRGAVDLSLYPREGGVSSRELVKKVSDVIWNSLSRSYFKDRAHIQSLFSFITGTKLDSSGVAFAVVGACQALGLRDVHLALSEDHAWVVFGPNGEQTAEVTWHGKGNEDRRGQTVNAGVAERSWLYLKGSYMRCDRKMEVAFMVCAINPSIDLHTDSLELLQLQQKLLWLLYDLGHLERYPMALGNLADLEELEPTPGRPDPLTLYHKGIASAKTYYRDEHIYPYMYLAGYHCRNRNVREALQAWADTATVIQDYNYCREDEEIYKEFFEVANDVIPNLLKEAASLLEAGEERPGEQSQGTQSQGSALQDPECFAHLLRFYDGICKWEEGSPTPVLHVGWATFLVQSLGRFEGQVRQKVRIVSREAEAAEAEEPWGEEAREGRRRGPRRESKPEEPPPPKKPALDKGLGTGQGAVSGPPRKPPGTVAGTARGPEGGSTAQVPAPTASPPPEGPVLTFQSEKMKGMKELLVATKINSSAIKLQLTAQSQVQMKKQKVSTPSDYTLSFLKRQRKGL
The following applies: S. Xu et al. Angewandte Chemie; cited from earlier work.

Take `COC(=O)N[C@H]1CCC[C@@H]1[C@](C#N)(c1cccc(F)c1)C1CCN(CC2CN(c3ccc(S(=O)(=O)C4CN(C(=O)/C=C/CN(C)C)C4)cc3)C2)CC1` [Compound M-525]: the “potency relative to the corresponding reversible inhibitors” value was more than 30 times.
